This passage reports IC50 results from publication PMC9104438, “Application of a Fluorescence Anisotropy-Based Assay to Quantify Transglutaminase 2 Activity in Cell Lysates” (International Journal of Molecular Sciences, 2022).

pIC50: −log10 of the molar value.

What all share (assay): FA-based assay, characterization of irreversible inhibitors
The target of one assay is T1, hTGase 1 (Homo sapiens, UniProt P22735).
T1 sequence (P22735 1-817): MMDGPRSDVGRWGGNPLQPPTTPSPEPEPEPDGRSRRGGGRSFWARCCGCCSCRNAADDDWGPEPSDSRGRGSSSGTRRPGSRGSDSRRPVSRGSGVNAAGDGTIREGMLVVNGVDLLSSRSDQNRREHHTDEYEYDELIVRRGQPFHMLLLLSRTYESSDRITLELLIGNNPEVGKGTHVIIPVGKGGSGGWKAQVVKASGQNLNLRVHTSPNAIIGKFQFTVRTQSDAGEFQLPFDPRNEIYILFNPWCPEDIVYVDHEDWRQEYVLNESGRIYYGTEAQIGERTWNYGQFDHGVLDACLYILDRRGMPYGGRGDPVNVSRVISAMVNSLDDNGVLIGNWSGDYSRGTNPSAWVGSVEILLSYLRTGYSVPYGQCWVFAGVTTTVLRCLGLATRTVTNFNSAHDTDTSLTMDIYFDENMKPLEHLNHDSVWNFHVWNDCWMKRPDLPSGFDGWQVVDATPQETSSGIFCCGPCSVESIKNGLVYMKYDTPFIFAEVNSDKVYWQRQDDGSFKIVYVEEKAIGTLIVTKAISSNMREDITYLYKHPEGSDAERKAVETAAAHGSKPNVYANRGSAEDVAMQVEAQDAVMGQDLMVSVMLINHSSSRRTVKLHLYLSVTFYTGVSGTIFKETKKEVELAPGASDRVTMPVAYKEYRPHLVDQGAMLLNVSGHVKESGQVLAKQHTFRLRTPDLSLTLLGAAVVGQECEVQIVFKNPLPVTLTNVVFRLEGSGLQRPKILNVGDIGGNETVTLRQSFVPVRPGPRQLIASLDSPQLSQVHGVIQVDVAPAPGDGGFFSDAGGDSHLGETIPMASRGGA

The target in the next assay is T2, hTGase 3 (Homo sapiens, UniProt Q08188).
T2 sequence (Q08188 2-467 limits assumed): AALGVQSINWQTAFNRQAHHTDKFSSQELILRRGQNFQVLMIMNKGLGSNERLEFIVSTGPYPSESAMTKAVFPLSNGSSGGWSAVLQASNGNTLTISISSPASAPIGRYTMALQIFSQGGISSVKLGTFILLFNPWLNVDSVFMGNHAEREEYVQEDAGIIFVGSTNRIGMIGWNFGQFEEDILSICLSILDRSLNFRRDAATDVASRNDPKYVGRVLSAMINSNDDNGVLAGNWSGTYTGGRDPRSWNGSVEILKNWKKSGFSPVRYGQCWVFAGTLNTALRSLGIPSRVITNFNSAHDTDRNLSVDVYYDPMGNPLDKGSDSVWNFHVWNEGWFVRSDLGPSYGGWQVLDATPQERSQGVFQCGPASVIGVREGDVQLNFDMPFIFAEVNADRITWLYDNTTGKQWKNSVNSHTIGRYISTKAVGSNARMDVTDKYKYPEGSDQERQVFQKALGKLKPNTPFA
T2 sequence (Q08188 468-693 partner limits assumed): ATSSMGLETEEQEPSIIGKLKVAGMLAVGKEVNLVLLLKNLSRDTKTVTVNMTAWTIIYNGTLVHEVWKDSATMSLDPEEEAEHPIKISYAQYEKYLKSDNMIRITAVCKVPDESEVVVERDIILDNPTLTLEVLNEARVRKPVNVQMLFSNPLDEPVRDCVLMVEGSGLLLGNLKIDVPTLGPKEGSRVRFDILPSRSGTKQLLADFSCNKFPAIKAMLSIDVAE

In the next assay the target is T3, hTGase 6 (Homo sapiens, UniProt O95932).
T3 sequence (O95932 1-706): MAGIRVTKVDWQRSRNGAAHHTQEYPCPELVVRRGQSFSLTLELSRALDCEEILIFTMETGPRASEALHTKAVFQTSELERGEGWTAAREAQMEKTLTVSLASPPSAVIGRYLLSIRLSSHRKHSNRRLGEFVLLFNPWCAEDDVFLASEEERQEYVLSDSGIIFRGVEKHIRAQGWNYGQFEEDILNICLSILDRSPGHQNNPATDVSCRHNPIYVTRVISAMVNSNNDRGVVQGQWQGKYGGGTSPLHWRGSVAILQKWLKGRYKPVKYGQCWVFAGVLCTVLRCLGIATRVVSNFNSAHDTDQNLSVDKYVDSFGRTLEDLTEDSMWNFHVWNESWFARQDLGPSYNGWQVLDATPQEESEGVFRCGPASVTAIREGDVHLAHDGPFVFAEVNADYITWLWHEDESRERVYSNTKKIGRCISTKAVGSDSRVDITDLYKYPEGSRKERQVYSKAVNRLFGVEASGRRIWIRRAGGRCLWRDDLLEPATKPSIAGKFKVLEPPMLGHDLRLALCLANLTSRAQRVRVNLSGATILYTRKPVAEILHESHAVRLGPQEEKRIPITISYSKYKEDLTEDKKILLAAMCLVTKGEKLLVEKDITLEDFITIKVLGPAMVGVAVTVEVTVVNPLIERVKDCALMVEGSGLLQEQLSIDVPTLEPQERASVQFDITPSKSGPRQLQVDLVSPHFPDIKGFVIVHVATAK

The target of the next assay is T4, hFXIIIa (Homo sapiens, UniProt P00488).
T4 sequence (P00488 39-732 limits assumed): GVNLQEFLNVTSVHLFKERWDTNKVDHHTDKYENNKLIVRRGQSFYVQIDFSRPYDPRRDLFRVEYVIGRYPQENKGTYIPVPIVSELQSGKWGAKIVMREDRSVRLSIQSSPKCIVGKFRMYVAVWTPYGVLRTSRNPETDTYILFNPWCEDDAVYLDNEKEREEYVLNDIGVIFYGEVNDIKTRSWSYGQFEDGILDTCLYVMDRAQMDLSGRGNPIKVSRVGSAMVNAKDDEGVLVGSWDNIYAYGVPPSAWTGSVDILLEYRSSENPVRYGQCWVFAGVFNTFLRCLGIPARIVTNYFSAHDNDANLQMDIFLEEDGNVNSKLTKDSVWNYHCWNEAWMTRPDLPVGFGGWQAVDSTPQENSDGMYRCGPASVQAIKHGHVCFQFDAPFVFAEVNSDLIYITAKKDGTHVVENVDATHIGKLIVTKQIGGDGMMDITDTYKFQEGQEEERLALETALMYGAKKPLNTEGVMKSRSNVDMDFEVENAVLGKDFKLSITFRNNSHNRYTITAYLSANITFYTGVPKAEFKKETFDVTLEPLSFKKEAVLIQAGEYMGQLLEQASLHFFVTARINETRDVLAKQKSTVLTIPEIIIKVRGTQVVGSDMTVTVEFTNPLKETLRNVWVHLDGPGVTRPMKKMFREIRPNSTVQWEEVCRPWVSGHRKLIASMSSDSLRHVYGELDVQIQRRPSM

Turning to `C=CC(=O)NCCCC[C@H](NC(=O)Cc1ccccc1)C(=O)N1CCN(c2cccc(C)n2)CC1` [Compound 1], the pIC50 at hTGase 1, at hTGase 3, at hTGase 6 and against hFXIIIa was < 4.52 throughout.
For the molecule `C=CC(=O)NCCCC[C@H](NC(=O)Cc1ccccc1)C(=O)N1CCN(c2ccc([N+](=O)[O-])nc2)CC1` [Compound 2], the pIC50 against hTGase 1 was 5.05; on hTGase 3 it was 4.48; at hTGase 6, 4.71; against hFXIIIa, 4.75.
For `C#Cc1cccc(N2CCN(C(=O)[C@H](CCCCNC(=O)C=C)NC(=O)Cc3ccccc3)CC2)n1` [Compound 3, N^α-Phenylacetyl-N^ε-acryloyl-L-lysine-4-(6-ethinylpyridin-2-yl)piperazide] the same measures were 4.99, < 4.00, 4.42 and 4.58.
On to `C=CC(=O)NCCCC[C@H](NC(=O)Cc1ccccc1)C(=O)N1CCN(c2cccc(-c3cn(CCOCCOCCOCCNC(=O)CCCC[C@@H]4SC[C@@H]5NC(=O)N[C@@H]54)nn3)n2)CC1` [Compound 4, N-(2-(2-(2-(2-(4-(6-(4-(N^6-acryloyl-N^2-(2-phenylacetyl)-L-lysyl)piperazin-1-yl)pyridin-2-yl)-1H-1,2,3-triazol-1-yl)ethoxy)ethoxy)ethoxy)ethyl)-5-((3aS,4S,6aR)-2-oxohexahydro-1H-thieno[3,4-d]imidazol-4-yl)pentanamide], for which the pIC50 against hTGase 1 was 5.34; against hTGase 3, < 4.00; at hTGase 6 it was 4.66; against hFXIIIa, 5.15.

As a reminder, the pIC50 is the IC50 on a negative log10 scale, so that one unit is a factor of ten.
